One assay concerns m5-HT3A/ZAC. The experiment in a line: TEVC, chimeric m5-HT3A/ZAC receptor in oocytes. The note with it: 30 μM, 0.3 μM 5-HT. The class given is cell-based, mouse/human. On the procedure:
(§1) The cDNAs for the various WT and chimeric CLR subunits were linearized and subsequently transcribed and capped mMessage mMachine T7 RNA transcription kit (Ambion, Waltham, MA). […]
(§2) On the day of experiment, all compound dilutions were prepared in a saline solution [115 mM NaCl, 2.5 mM KCl, 10 mM MOPS (pH 7.5), 1.8 mM CaCl2, 0.1 mM MgCl2] and pH adjusted to 7.5 (if needed). […] Currents were recorded using pCLAMP 10 (Molecular Devices, Sunnyvale, CA). […]
(§3) In all recordings, the compounds or compound combinations were applied in the bath until the peak current decayed to a steady state (up to 30 sec at the most). […] The functional properties of the modulators at the CLRs were determined by pre-application of the modulator to the perfusate 30 sec and followed by co-application of the modulator and the agonist to the perfusate. […]
(§4) Data analysis of the results from the TEVC recordings were performed using Clampfit software version 10.5 (Molecular Devices, Crawley, UK) and GraphPad Prism version 7.0c (GraphPad Software, Inc. La Jolla, CA). […] I-V relationships were analyzed by fitting the curves with a third order polynomial model. […]

The next assay has as its target T1, hα1 GlyR (Homo sapiens, UniProt P23415).
T1 sequence (P23415 29-457): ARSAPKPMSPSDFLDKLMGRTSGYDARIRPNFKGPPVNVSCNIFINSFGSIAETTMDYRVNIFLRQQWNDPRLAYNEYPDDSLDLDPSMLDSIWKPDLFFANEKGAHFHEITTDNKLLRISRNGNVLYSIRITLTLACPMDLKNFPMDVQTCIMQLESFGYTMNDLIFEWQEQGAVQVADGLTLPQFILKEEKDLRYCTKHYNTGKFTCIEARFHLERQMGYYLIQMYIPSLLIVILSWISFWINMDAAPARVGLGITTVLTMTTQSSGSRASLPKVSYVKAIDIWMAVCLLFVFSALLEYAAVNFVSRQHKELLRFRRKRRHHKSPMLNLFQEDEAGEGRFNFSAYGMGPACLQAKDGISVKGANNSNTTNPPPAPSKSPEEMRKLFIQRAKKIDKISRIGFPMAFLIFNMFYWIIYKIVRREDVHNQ
The experiment in a line: TEVC selectivity, hα1 GlyR in oocytes. The class given is cell-based. The note with it: 30 μM, 30 s preapplication, 100 μM glycine (EC20–EC40). As to the method: as §1, §2, §3, §4

Another assay addresses T2, m5-HT3AR (Mus musculus, UniProt P23979).
T2 sequence (P23979 24-489): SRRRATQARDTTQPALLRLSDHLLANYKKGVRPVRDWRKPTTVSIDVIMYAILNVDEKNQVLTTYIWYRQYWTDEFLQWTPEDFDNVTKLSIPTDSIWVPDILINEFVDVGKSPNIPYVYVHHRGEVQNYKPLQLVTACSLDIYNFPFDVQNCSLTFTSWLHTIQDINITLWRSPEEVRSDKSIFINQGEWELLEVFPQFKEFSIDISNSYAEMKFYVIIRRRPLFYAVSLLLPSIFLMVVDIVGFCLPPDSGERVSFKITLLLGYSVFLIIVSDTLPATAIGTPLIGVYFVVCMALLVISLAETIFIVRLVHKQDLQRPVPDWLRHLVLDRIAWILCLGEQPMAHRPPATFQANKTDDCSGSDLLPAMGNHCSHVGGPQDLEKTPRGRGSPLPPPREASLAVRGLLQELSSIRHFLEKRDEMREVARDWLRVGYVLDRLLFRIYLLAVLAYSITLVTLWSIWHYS
The experiment in a line: TEVC selectivity, m5-HT3AR in oocytes. Type of assay: cell-based. The note with it: 30 μM, 30 s preapplication, 2 μM 5-HT (EC20–EC40). On the procedure: as §1, §2, §3, §4

From paper PMC9979163, “Discovery and functional characterization of N-(thiazol-2-yl)-benzamide analogs as the first class of selective antagonists of the Zinc-Activated Channel (ZAC)” (Biochemical pharmacology, 2021) come the findings set out here.

On to `CC(C)(C)c1csc(NC(=O)c2cccc(F)c2)n1` [5a, N-(4-(tert-butyl)thiazol-2-yl)-3-fluorobenzamide], for which the “Modulation of 5-HT-induced response” value in the assay on m5-HT3A/ZAC is reported as “complete inhibition”. Also, the “Agonist, antagonist or PAM activity” value on hα1 GlyR and on m5-HT3AR was “did not display significant activity” in each case.
